Assay [1] deals with LecB (PA-IIL) (Pseudomonas aeruginosa, UniProt Q9HYN5). In kind it is binding. Particulars: read-out: LecB / KD.
For assay [2], the target named is T1, BambL (Burkholderia ambifaria, UniProt Q0B4G1).
T1 construct: gene Bamb_5415
The experiment in a line: X-ray crystal structure of complex, […] Å. In kind it is binding. Particulars: co-crystallised with 5 mM sugar; intra- and intermonomeric sites; reservoir pH 5.0.

Chain of LecB (PA-IIL) (Q9HYN5 2-115 limits assumed): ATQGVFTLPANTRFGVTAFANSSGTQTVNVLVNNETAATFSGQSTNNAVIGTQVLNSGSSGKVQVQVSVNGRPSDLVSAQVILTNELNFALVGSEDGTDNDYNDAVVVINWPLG
T1 sequence (Q0B4G1 1-87 limits assumed): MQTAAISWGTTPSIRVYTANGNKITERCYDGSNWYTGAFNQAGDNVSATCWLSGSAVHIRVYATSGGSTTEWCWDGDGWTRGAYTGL

Turning to `CC(=O)N[C@H]1[C@@H](O[C@H]2[C@@H](O)[C@@H](CO)OC(O)[C@@H]2O[C@@H]2O[C@@H](C)[C@@H](O)[C@@H](O)[C@@H]2O)O[C@H](CO)[C@H](O)[C@@H]1O` (some centres unmarked) [A tri], the Kd in assay [1] was 10300 nM.
Regarding `CC(=O)N[C@H]1C(O)O[C@H](CO)[C@@H](O)[C@@H]1O[C@@H]1O[C@H](CO)[C@H](O)[C@H](O)[C@H]1O[C@@H]1O[C@@H](C)[C@@H](O)[C@@H](O)[C@@H]1O` (some centres unmarked) [H type 1], the Kd in assay [1] was 1390 nM.
Take `CC(=O)N[C@H]1C(O)O[C@H](CO)[C@@H](O[C@@H]2O[C@H](CO)[C@H](O)[C@H](O)[C@H]2O[C@@H]2O[C@@H](C)[C@@H](O)[C@@H](O)[C@@H]2O)[C@@H]1O` (some centres unmarked) [H type 2]: in assay [1], the Kd was found to be 480 nM.
For `CC(=O)N[C@H]1[C@H](O[C@H]2[C@@H](O)[C@@H](CO)OC(O)[C@@H]2O)O[C@H](CO)[C@@H](O[C@@H]2O[C@H](CO)[C@H](O)[C@H](O)[C@H]2O)[C@@H]1O[C@@H]1O[C@@H](C)[C@@H](O)[C@@H](O)[C@@H]1O` (some centres unmarked) [Le^x tetrasaccharide], the “X-ray crystal structure of complex, 1.6 Å” value in assay [2] is reported as “BambL was cocrystallised with the Le^x tetrasaccharide”.
Regarding `CC(=O)N[C@H]1[C@H]([C@H](O)[C@H](O)CO)O[C@@](O[C@H]2[C@@H](O)[C@@H](CO)O[C@@H](O[C@H]3[C@H](O[C@@H]4O[C@@H](C)[C@@H](O)[C@@H](O)[C@@H]4O)[C@@H](CO)OC(O)[C@@H]3NC(C)=O)[C@@H]2O)(C(=O)O)C[C@@H]1O` (some centres unmarked) [sLe^a], in assay [1], the Kd was 290 nM.

Values taken from publication PMC3747263 (PLoS ONE, 2013).
